{"source": "PubChem BioAssay (NCI)", "experiment_in_all_cases": "NCI-60 cell line screen, 48 h", "key": {"KM20L2 colon": {"tested_on": "KM20L2 colon"}, "HOP-18 NSCLC": {"tested_on": "HOP-18 NSCLC"}, "DMS 273 small cell lung": {"tested_on": "DMS 273 small cell lung"}, "RXF-631 renal": {"tested_on": "RXF-631 renal"}, "DLD-1 colon": {"tested_on": "DLD-1 colon"}, "LXFL 529 NSCLC": {"tested_on": "LXFL 529 NSCLC"}, "DMS 114 small cell lung": {"tested_on": "DMS 114 small cell lung"}, "M19-MEL melanoma": {"tested_on": "M19-MEL melanoma"}, "XF 498 CNS": {"tested_on": "XF 498 CNS"}}, "note": "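48-hour exposure; five concentrations; linearly interpolated endpoints. TGI is the concentration that stops growth completely.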"}
{"smiles": "O=S1c2ccc(Cl)cc2CC(SSC2Cc3cc(Cl)ccc3S(=O)c3ccccc32)c2ccccc21", "note": "(stereo not drawn)", "values": [{"measurement": "TGI", "setting": "KM20L2 colon", "value": "> 100", "unit": "µM"}, {"measurement": "TGI", "setting": "HOP-18 NSCLC", "value": "> 100", "unit": "µM"}, {"measurement": "TGI", "setting": "DMS 273 small cell lung", "value": "> 100", "unit": "µM"}, {"measurement": "TGI", "setting": "RXF-631 renal", "value": "> 100", "unit": "µM"}, {"measurement": "TGI", "setting": "DLD-1 colon", "value": "> 100", "unit": "µM"}, {"measurement": "TGI", "setting": "LXFL 529 NSCLC", "value": "> 100", "unit": "µM"}, {"measurement": "TGI", "setting": "DMS 114 small cell lung", "value": "> 100", "unit": "µM"}, {"measurement": "TGI", "setting": "M19-MEL melanoma", "value": "> 100", "unit": "µM"}]}
{"smiles": "COc1cc(CCCC(O)COc2cccc3c2C2(O)CCCCCC32)cc(OC)c1", "note": "(stereo not drawn)", "values": [{"measurement": "TGI", "setting": "KM20L2 colon", "value": 28.1, "unit": "µM"}, {"measurement": "TGI", "setting": "XF 498 CNS", "value": 35.8, "unit": "µM"}, {"measurement": "TGI", "setting": "HOP-18 NSCLC", "value": 33.1, "unit": "µM"}, {"measurement": "TGI", "setting": "DMS 273 small cell lung", "value": 34.8, "unit": "µM"}, {"measurement": "TGI", "setting": "DLD-1 colon", "value": 36.6, "unit": "µM"}, {"measurement": "TGI", "setting": "LXFL 529 NSCLC", "value": 33.5, "unit": "µM"}, {"measurement": "TGI", "setting": "DMS 114 small cell lung", "value": 23.4, "unit": "µM"}, {"measurement": "TGI", "setting": "M19-MEL melanoma", "value": 32.7, "unit": "µM"}]}
{"smiles": "CNC(=O)CN(CC(N)=O)C(=O)NC", "values": [{"measurement": "TGI", "setting": "KM20L2 colon", "value": "> 100", "unit": "µM"}, {"measurement": "TGI", "setting": "XF 498 CNS", "value": "> 100", "unit": "µM"}, {"measurement": "TGI", "setting": "DMS 273 small cell lung", "value": "> 100", "unit": "µM"}, {"measurement": "TGI", "setting": "RXF-631 renal", "value": "> 100", "unit": "µM"}, {"measurement": "TGI", "setting": "DLD-1 colon", "value": "> 100", "unit": "µM"}, {"measurement": "TGI", "setting": "LXFL 529 NSCLC", "value": "> 100", "unit": "µM"}, {"measurement": "TGI", "setting": "M19-MEL melanoma", "value": "> 100", "unit": "µM"}]}
{"smiles": "O=C1/C(=C/c2ccccc2)CCCC/C1=C\\c1ccccc1", "values": [{"measurement": "TGI", "setting": "KM20L2 colon", "value": "> 100", "unit": "µM"}, {"measurement": "TGI", "setting": "XF 498 CNS", "value": "> 100", "unit": "µM"}, {"measurement": "TGI", "setting": "HOP-18 NSCLC", "value": "> 100", "unit": "µM"}, {"measurement": "TGI", "setting": "DMS 273 small cell lung", "value": "> 100", "unit": "µM"}, {"measurement": "TGI", "setting": "RXF-631 renal", "value": "> 100", "unit": "µM"}, {"measurement": "TGI", "setting": "DLD-1 colon", "value": "> 100", "unit": "µM"}, {"measurement": "TGI", "setting": "LXFL 529 NSCLC", "value": "> 100", "unit": "µM"}, {"measurement": "TGI", "setting": "DMS 114 small cell lung", "value": "> 100", "unit": "µM"}, {"measurement": "TGI", "setting": "M19-MEL melanoma", "value": "> 100", "unit": "µM"}]}
{"smiles": "COC(=O)/C(=C/CC(N=C(c1ccccc1)c1ccccc1)C(=O)OC)N=C(c1ccccc1)c1ccccc1", "note": "(stereo not drawn)", "values": [{"measurement": "TGI", "setting": "XF 498 CNS", "value": "> 100", "unit": "µM"}, {"measurement": "TGI", "setting": "DMS 273 small cell lung", "value": "> 100", "unit": "µM"}, {"measurement": "TGI", "setting": "DLD-1 colon", "value": "> 100", "unit": "µM"}, {"measurement": "TGI", "setting": "LXFL 529 NSCLC", "value": "> 100", "unit": "µM"}, {"measurement": "TGI", "setting": "DMS 114 small cell lung", "value": 82.1, "unit": "µM"}, {"measurement": "TGI", "setting": "M19-MEL melanoma", "value": "> 100", "unit": "µM"}]}
{"smiles": "COc1cc(-c2c(C)c(C)nc(OC)c2C#N)cc(OC)c1OC", "values": [{"measurement": "TGI", "setting": "KM20L2 colon", "value": "> 100", "unit": "µM"}, {"measurement": "TGI", "setting": "HOP-18 NSCLC", "value": "> 100", "unit": "µM"}, {"measurement": "TGI", "setting": "DLD-1 colon", "value": "> 100", "unit": "µM"}, {"measurement": "TGI", "setting": "LXFL 529 NSCLC", "value": "> 100", "unit": "µM"}, {"measurement": "TGI", "setting": "DMS 114 small cell lung", "value": "> 100", "unit": "µM"}, {"measurement": "TGI", "setting": "M19-MEL melanoma", "value": "> 100", "unit": "µM"}]}
{"smiles": "Cc1cc(C)n(-c2c(O)ccc(O)c2-n2nc(C)cc2C)n1", "values": [{"measurement": "TGI", "setting": "KM20L2 colon", "value": "> 100", "unit": "µM"}, {"measurement": "TGI", "setting": "XF 498 CNS", "value": "> 100", "unit": "µM"}, {"measurement": "TGI", "setting": "DMS 273 small cell lung", "value": "> 100", "unit": "µM"}, {"measurement": "TGI", "setting": "RXF-631 renal", "value": "> 100", "unit": "µM"}, {"measurement": "TGI", "setting": "DLD-1 colon", "value": "> 100", "unit": "µM"}, {"measurement": "TGI", "setting": "LXFL 529 NSCLC", "value": "> 100", "unit": "µM"}, {"measurement": "TGI", "setting": "DMS 114 small cell lung", "value": "> 100", "unit": "µM"}, {"measurement": "TGI", "setting": "M19-MEL melanoma", "value": "> 100", "unit": "µM"}]}
{"smiles": "CSC(=N)N1N=C2c3ccccc3CC[C@@H]2[C@@H]1c1ccccc1", "values": [{"measurement": "TGI", "setting": "KM20L2 colon", "value": 25.6, "unit": "µM"}, {"measurement": "TGI", "setting": "XF 498 CNS", "value": 30.6, "unit": "µM"}, {"measurement": "TGI", "setting": "HOP-18 NSCLC", "value": 47.8, "unit": "µM"}, {"measurement": "TGI", "setting": "DMS 273 small cell lung", "value": 28.5, "unit": "µM"}, {"measurement": "TGI", "setting": "DLD-1 colon", "value": 31.7, "unit": "µM"}, {"measurement": "TGI", "setting": "LXFL 529 NSCLC", "value": 24.2, "unit": "µM"}, {"measurement": "TGI", "setting": "DMS 114 small cell lung", "value": 28.7, "unit": "µM"}, {"measurement": "TGI", "setting": "M19-MEL melanoma", "value": 29.4, "unit": "µM"}]}
{"smiles": "CN(CCO)c1nc2c(c(=O)[nH]1)CNCC2", "values": [{"measurement": "TGI", "setting": "KM20L2 colon", "value": "> 100", "unit": "µM"}, {"measurement": "TGI", "setting": "XF 498 CNS", "value": "> 100", "unit": "µM"}, {"measurement": "TGI", "setting": "HOP-18 NSCLC", "value": "> 100", "unit": "µM"}, {"measurement": "TGI", "setting": "DMS 273 small cell lung", "value": "> 100", "unit": "µM"}, {"measurement": "TGI", "setting": "DLD-1 colon", "value": "> 100", "unit": "µM"}, {"measurement": "TGI", "setting": "LXFL 529 NSCLC", "value": "> 100", "unit": "µM"}, {"measurement": "TGI", "setting": "DMS 114 small cell lung", "value": "> 100", "unit": "µM"}, {"measurement": "TGI", "setting": "M19-MEL melanoma", "value": "> 100", "unit": "µM"}]}
{"smiles": "Nc1ccc(C(=O)NN2C(=O)C(Cl)C2c2ccccc2O)cc1", "note": "(stereo not drawn)", "values": [{"measurement": "TGI", "setting": "KM20L2 colon", "value": "> 100", "unit": "µM"}, {"measurement": "TGI", "setting": "XF 498 CNS", "value": "> 100", "unit": "µM"}, {"measurement": "TGI", "setting": "DMS 273 small cell lung", "value": "> 100", "unit": "µM"}, {"measurement": "TGI", "setting": "DLD-1 colon", "value": "> 100", "unit": "µM"}, {"measurement": "TGI", "setting": "LXFL 529 NSCLC", "value": "> 100", "unit": "µM"}, {"measurement": "TGI", "setting": "DMS 114 small cell lung", "value": 79.6, "unit": "µM"}, {"measurement": "TGI", "setting": "M19-MEL melanoma", "value": "> 100", "unit": "µM"}]}
{"smiles": "Cn1c2cccc3nnc4cccc(c4c32)n1C", "values": [{"measurement": "TGI", "setting": "KM20L2 colon", "value": "> 100", "unit": "µM"}, {"measurement": "TGI", "setting": "XF 498 CNS", "value": "> 100", "unit": "µM"}, {"measurement": "TGI", "setting": "DMS 273 small cell lung", "value": "> 100", "unit": "µM"}, {"measurement": "TGI", "setting": "RXF-631 renal", "value": "> 100", "unit": "µM"}, {"measurement": "TGI", "setting": "DLD-1 colon", "value": "> 100", "unit": "µM"}, {"measurement": "TGI", "setting": "LXFL 529 NSCLC", "value": "> 100", "unit": "µM"}, {"measurement": "TGI", "setting": "DMS 114 small cell lung", "value": "> 100", "unit": "µM"}, {"measurement": "TGI", "setting": "M19-MEL melanoma", "value": "> 100", "unit": "µM"}]}
